Results reported in ChEMBL document CHEMBL1140618, “3D-QSAR and molecular docking studies on benzothiazole derivatives as Candida albicans N-myristoyltransferase inhibitors” (Eur J Med Chem, 2007).

Biological target: T1, Glycylpeptide N-tetradecanoyltransferase (Candida albicans (strain SC5314 / ATCC MYA-2876) (Yeast), UniProt P30418)
T1 sequence (P30418 whole entry): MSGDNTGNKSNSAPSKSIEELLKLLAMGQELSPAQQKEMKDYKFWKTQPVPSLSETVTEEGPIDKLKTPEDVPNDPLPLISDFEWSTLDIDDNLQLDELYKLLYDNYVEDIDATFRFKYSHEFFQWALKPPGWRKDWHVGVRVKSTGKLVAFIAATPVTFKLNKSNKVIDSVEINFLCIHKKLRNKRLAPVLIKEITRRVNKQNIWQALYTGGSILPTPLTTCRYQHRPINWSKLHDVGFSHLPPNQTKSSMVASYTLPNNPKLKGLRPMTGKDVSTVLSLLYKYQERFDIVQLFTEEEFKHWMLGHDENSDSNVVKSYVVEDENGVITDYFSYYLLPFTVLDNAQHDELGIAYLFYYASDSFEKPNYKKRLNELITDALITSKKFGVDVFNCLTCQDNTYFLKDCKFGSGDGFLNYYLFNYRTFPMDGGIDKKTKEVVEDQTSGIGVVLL
Assay: Inhibition of Candida albicans N-myristoyltransferse

Structure (SMILES) | IC50 [nM]
O=C(NCCCCCNCc1ccc2ccccc2c1)c1ccc2nc(NC(=O)C3CCCCC3)sc2c1 | 300
O=C(NCCNCc1ccc2ccccc2c1)c1ccc2nc(NC(=O)C3CCNCC3)sc2c1 | > 10000
O=C(Nc1nc2ccc(NC(=O)[C@H]3CCC[C@@H](NCc4ccc5ccccc5c4)C3)cc2s1)C1CCCC1 | 0.49
O=C(NCCCCNCc1ccc2ccccc2c1)c1ccc2nc(NC(=O)C3CCCCC3)sc2c1 | 74
O=C(Nc1nc2ccc(NC(=O)[C@@H]3CC[C@H](NCc4ccc5ccccc5c4)C3)cc2s1)C1CCCC1 | 11
CCC(=O)Nc1nc2ccc(C(=O)NCCNCc3ccc4ccccc4c3)cc2s1 | 130
O=C(NCCNCc1ccc2ccccc2c1)c1ccc2nc(NC(=O)c3cccnc3Cl)sc2c1 | > 10000
CC(=O)Nc1nc2ccc(C(=O)NCCNCc3ccc4ccccc4c3)cc2s1 | > 10000
O=C(NCCNCc1ccc2ccccc2c1)c1ccc2nc(NC(=O)c3ccc(Cl)cc3)sc2c1 | > 10000
CC(C)C(=O)Nc1nc2ccc(C(=O)NCCNCc3ccc4ccccc4c3)cc2s1 | 46
O=C(Nc1nc2ccc(C(=O)N3CCC(CNCc4ccc5ccccc5c4)CC3)cc2s1)C1CCCCC1 | 26
CCOC(=O)c1oc2cccc(OCCCNC(C)(C)C)c2c1C | 1700
CC(C)(C)OC(=O)Nc1nc2ccc(C(=O)NCCNCc3ccc4ccccc4c3)cc2s1 | > 10000
O=C(Nc1nc2ccc(C(=O)N3CCC(NCc4ccc5ccccc5c4)C3)cc2s1)C1CCCCC1 (stereo unspecified) | 190
O=C(NCCNCc1ccc2ccccc2c1)c1ccc2nc(NCC3CCCCC3)sc2c1 | > 1000
O=C(NCCNCc1ccc2ccccc2c1)c1ccc2nc(NC(=O)C3CCCC3)sc2c1 | 23
O=C(NCc1cccc(CNCc2ccc3ccccc3c2)c1)c1ccc2nc(NC(=O)C3CCCCC3)sc2c1 | 1900
CC(C)C(=O)Nc1nc2ccc(NC(=O)C3CCCC(NCc4ccc5ccccc5c4)C3)cc2s1 (stereo unspecified) | 3.3
O=C(NCCNCc1ccc2ccccc2c1)c1ccc2nc(NC(=O)c3ccc(Cl)c(Cl)c3)sc2c1 | > 10000
COc1ccc(OC)c(C(=O)Nc2nc3ccc(C(=O)NCCNCc4ccc5ccccc5c4)cc3s2)c1 | 310
O=C(NCCNCc1ccc2ccccc2c1)c1ccc2nc(NCc3ccccc3)sc2c1 | > 10000
O=C(NCCNCc1ccc2ccccc2c1)c1ccc2nc(NC(=O)c3ccccc3)sc2c1 | 160
O=C(NCCNCc1ccc2ccccc2c1)c1ccc2nc(NC(=O)c3cnccn3)sc2c1 | 730

Structure (SMILES) | IC50 [nM]
O=C(NCc1ccc(CNCc2ccc3ccccc3c2)cc1)c1ccc2nc(NC(=O)C3CCCCC3)sc2c1 | > 10000
Nc1nc2ccc(C(=O)NCCNCc3ccc4ccccc4c3)cc2s1 | > 10000
O=C(CCNCc1ccc(-c2ccccc2)cc1)Nc1ccc2nc(NC(=O)C3CCCC3)sc2c1 | 160
Cc1c(COc2ccc(F)c(F)c2F)oc2cccc(OCCCNCc3cccnc3)c12 | 5.7
O=C(Nc1ccc2nc(NC(=O)C3CCCCC3)sc2c1)C1CCCC(NCc2ccc3ccccc3c2)C1 (stereo unspecified) | 8.1
O=C(Nc1nc2ccc(C(=O)N3CCC(NCc4ccc5ccccc5c4)CC3)cc2s1)C1CCCCC1 | 500
O=C(Nc1nc2ccc(C(=O)N3CC(NCc4ccc5ccccc5c4)C3)cc2s1)C1CCCCC1 | 65
O=C(Nc1nc2ccc(C(=O)N3CCCC(NCc4ccc5ccccc5c4)C3)cc2s1)C1CCCCC1 (stereo unspecified) | 210
O=C(NCCNCc1ccc2ccccc2c1)c1ccc2nc(NCc3ccccn3)sc2c1 | > 10000
O=C(Nc1ccc2nc(NC(=O)C3CCCC3)sc2c1)C1CCC(NCc2ccc3ccccc3c2)CC1 (stereo unspecified) | 34
O=C(NCCNCc1ccc2ccccc2c1)c1ccc2nc(NC(=O)c3ccc(C(F)(F)F)cc3)sc2c1 | > 10000
O=C(NCCNCc1ccc2ccccc2c1)c1ccc2nc(NC(=O)c3ccccn3)sc2c1 | > 10000
O=C(CCCNCc1ccc2ccccc2c1)Nc1ccc2nc(NC(=O)C3CCCC3)sc2c1 | 15
O=C(NCCNCc1ccc2ccccc2c1)c1ccc2nc(NC(=O)C3CCOCC3)sc2c1 | 890
O=C(NCCNCc1ccc2ccccc2c1)c1ccc2nc(NC(=O)C3CCC3)sc2c1 | 28
O=C(Nc1ccc2nc(NC(=O)C3CC3)sc2c1)C1CCCC(NCc2ccc3ccccc3c2)C1 (stereo unspecified) | 2.4
O=C(NCCNCc1ccc2ccccc2c1)c1ccc2ncsc2c1 | > 10000
O=C(CNCc1ccc2ccccc2c1)Nc1ccc2nc(NC(=O)C3CCCCC3)sc2c1 | 2300
O=C(Nc1ccc2nc(NC(=O)C3CCC3)sc2c1)C1CCCC(NCc2ccc3ccccc3c2)C1 (stereo unspecified) | 2.3
O=C(NCCCNCc1ccc2ccccc2c1)c1ccc2nc(NC(=O)C3CCCCC3)sc2c1 | 110
Cc1ccc(C(=O)c2oc3cccc(OCCCNCc4cccnc4)c3c2C)nc1 | 0.39
O=C(NCCNCc1ccc2ccccc2c1)c1ccc2nc(NC(=O)C3CCCCC3)sc2c1 | 34
O=C(Nc1ccc2nc(NC(=O)C3CCCC3)sc2c1)C1CCCC(NCc2ccc(-c3ccccc3)cc2)C1 (stereo unspecified) | 130
